This is an account of results in US10000771B2, “Nuclear targeting sequences” (Yeda Research and Development Co. Ltd., priority 2007, dated 2018).

In the experiment the test system is Nup153c. Nature of the experiment: Interaction with recombinant His-Nup153c. The format is binding. The conditions noted are these: immunoprecipitated ERK2 incubated with 0.5 μg recombinant His-Nup153c. The procedure:
FIGS. 19A-19C are autoradiographs illustrating that phospho-SPS interacts with importin-7 and releases Nup153c binding without involvment of importin-β. […]. Interaction of ERK2 with Importin-7 is enhanced by EGF stimulation and EPE mutation. HeLa cells overexpressing WT-ERK (WT), ERK-APA (APA), ERK-EPE (EPE) or GFP were serum starved and treated with EGF (50 ng/ml, 10 min). The extracts of the treated cells were then subjected to coimmunoprecipitation using A/G beads pre-conjugated with anti GFP Ab and mild washes. The coimmunoprecipitated importin-7 (first panel) and importin-β (third panel), as well as their loading amounts (panels 2 and 4 respectively) were determined by WB using anti importin-7 (αImp7) and importin-β (αImpβ) Abs. The equal amount of immunoprecipitated ERKs was determined with anti GFP (αGFP; IP) Ab. FIG. 19B. Interaction of 2GFP-SPS and its mutants with importin-7. HeLa cells overexpressing 2GFP, 2GFP-SPS, 2GFP-APA and 2GFP-EPE constructs were subjected to coimmunoprecipitation as described in FIG. 19A (without EGF stimulation). FIG. 19C. Interaction of NUP153 with WTERK2 and its APA and EPE mutants. NUP153c is elevated in APA-ERK2, but reduced in EPE-ERK2. Immunoprecipitated and stringently washed WT-ERK2 (WT), APA-ERK2 (APA) or ERK2 from […] cells pre-treated with or without TPA (250 nM, 15 min) were incubated with 0.5 μg recombinant His-Nup153c. […]

On to “WT-ERK2: wild-type ERK2 fused to GFP, prepared in pEGFP C1 [reference compound]”, for which the “interaction with Nup153” value is given as “interacts with Nup153”.
